According to paper PMC7618375, “Structure and Methyl-lysine Binding Selectivity of the HUSH Complex Subunit MPP8” (Journal of molecular biology, 2024):
Non-standard residues stand in square brackets, D forms with d. Residues, ends and D or L forms follow the SMILES beside them. Lys(Me3) = C[N+](C)(C)CCCC[C@H](N)C(=O)O

Target: T1, MPP8 CD (chromodomain, residues 55–116) (Homo sapiens, UniProt Q99549)
T1 construct: The MPP8 CD (residues 55–116) was cloned with a tobacco etch virus (TEV) protease cleavage site; His6 (N); TEV protease cleavage site (ENLYFQG) (N); made in house; host or cells: E. coli BL21 (DE3)
T1 sequence (Q99549 55-116): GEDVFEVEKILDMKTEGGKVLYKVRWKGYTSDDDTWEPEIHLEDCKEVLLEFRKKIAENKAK
Experiment: Isothermal titration calorimetry (ITC) of H3K9 and H3K9-like peptides titrated into MPP8 CD
Type: binding
Settings: 50 mM HEPES pH 7.4, 0.1 M NaCl, 0.5 mM TCEP, 25 °C, 50 μM MPP8 CD in cell, 750 μM peptide in syringe, single-site model
Description: H3K9 and H3K9-like peptides, unmethylated or lysine-trimethylated, were chemically synthesized (Bio Basic Inc/NBS Biologicals Ltd). Binding of MPP8 CD to H3K9 and H3K9-like peptides was analyzed in 50 mM HEPES pH 7.4, 0.1 M NaCl, 0.5 mM TCEP at 25 °C (298 K), with an AutoiTC200 calorimeter (MicroCal). The sample cell was loaded with 0.37 ml of 50 μM MPP8 CD and the titrant syringe with 750 μM peptide. 20 serial injections of […] peptide solution were performed at 3 min intervals. The stirring speed was 1,000 rpm and the reference power was maintained at 6.06 µcal s^−1. The net heat absorption or release associated with each injection was calculated by subtracting the heat associated with the injection of peptide solution to buffer. Thermodynamic parameters were extracted from a curve fit to the data to a single-site model with Origin 7.0 (MicroCal).

Row | SMILES | Kd [nM]
1 | CSCC[C@H](NC(=O)[C@@H](NC(=O)[C@H](CCCC[N+](C)(C)C)NC(=O)[C@H](CCCNC(=N)N)NC(=O)[C@H](C)NC(=O)[C@H](CCCCN)NC(=O)[C@H](Cc1ccccc1)NC(=O)[C@@H](NC(=O)[C@@H](N)CCCCN)C(C)C)[C@@H](C)O)C(=O)N[C@@H](CCCNC(=N)N)C(=O)N[C@H](C(=O)N[C@@H](CO)C(=O)O)C(C)C [ATF7IP 10-21 K16me3] (H-KVFKAR[Lys(Me3)]TMRVS-OH) | 193 ± 31
2 | CSCC[C@H](NC(=O)[C@@H](NC(=O)[C@H](CCCC[N+](C)(C)C)NC(=O)[C@H](CCCNC(=N)N)NC(=O)[C@H](C)NC(=O)[C@H](CCCNC(=N)N)NC(=O)[C@H](Cc1c[nH]cn1)NC(=O)[C@@H](NC(=O)[C@@H](N)CCCCN)C(C)C)[C@@H](C)O)C(=O)N[C@@H](CO)C(=O)N[C@@H](CCCCN)C(=O)N1CCC[C@H]1C(=O)O [G9a 179-190 K185me3] (H-KVHRAR[Lys(Me3)]TMSKP-OH) | 1310
3 | CSCC[C@H](NC(=O)[C@@H](NC(=O)[C@H](CCCC[N+](C)(C)C)NC(=O)[C@H](CCCNC(=N)N)NC(=O)[C@H](C)NC(=O)[C@H](CCCNC(=N)N)NC(=O)[C@H](Cc1c[nH]cn1)NC(=O)[C@@H](NC(=O)[C@@H](N)CCCCN)C(C)C)[C@@H](C)O)C(=O)N1CCC[C@H]1C(=O)N[C@@H](CCCCN)C(=O)N[C@@H](CO)C(=O)N[C@H](C(=O)O)C(C)C [GLP 199-211 K205me3] (H-KVHRAR[Lys(Me3)]TMPKSV-OH) | 337 ± 64
4 | C[C@H](NC(=O)[C@H](CCCCN)NC(=O)CNC(=O)CNC(=O)[C@@H](NC(=O)[C@H](CO)NC(=O)[C@H](CCCC[N+](C)(C)C)NC(=O)[C@H](CCCNC(=N)N)NC(=O)[C@H](C)NC(=O)[C@@H](NC(=O)[C@H](CCC(N)=O)NC(=O)[C@@H](N)CCCCN)[C@@H](C)O)[C@@H](C)O)C(=O)O [H3.1 4-15 K9me3, reference compound] | 769 ± 65
5 | CC(C)C[C@H](N)C(=O)N[C@@H](C)C(=O)N[C@H](C(=O)N[C@@H](CCCCN)C(=O)N[C@@H](C)C(=O)N[C@@H](C)C(=O)N[C@@H](CCCNC(=N)N)C(=O)N[C@@H](CCCC[N+](C)(C)C)C(=O)N[C@@H](CO)C(=O)N[C@@H](C)C(=O)N1CCC[C@H]1C(=O)N[C@@H](C)C(=O)N[C@H](C(=O)NCC(=O)NCC(=O)N[C@H](C(=O)N[C@@H](CCCCN)C(=O)O)C(C)C)[C@@H](C)O)[C@@H](C)O [H3.1 20-36 K27me3, reference compound] | > 50000
6 | CC[C@H](C)[C@H](NC(=O)CNC(=O)[C@H](Cc1c[nH]cn1)NC(=O)[C@@H](NC(=O)[C@H](CO)NC(=O)[C@H](CCCC[N+](C)(C)C)NC(=O)[C@H](CC(C)C)NC(=O)[C@H](C)NC(=O)[C@H](Cc1ccccc1)NC(=O)CNC(=O)[C@@H](N)CCCNC(=N)N)[C@@H](C)O)C(=O)O [SETDB1 1165-1175 K1170me3] (H-RGFAL[Lys(Me3)]STHGI-OH) | 1550
7 | CC[C@H](C)[C@H](NC(=O)CNC(=O)[C@H](Cc1c[nH]cn1)NC(=O)[C@@H](NC(=O)[C@@H](N)CO)[C@@H](C)O)C(=O)N[C@@H](C)C(=O)N[C@H](C(=O)N[C@@H](CCCC[N+](C)(C)C)C(=O)N[C@@H](CO)C(=O)N[C@H](C(=O)N[C@@H](CC(N)=O)C(=O)N[C@@H](CCSC)C(=O)N[C@@H](C)C(=O)N[C@@H](CO)C(=O)O)[C@@H](C)O)[C@@H](C)CC [SETDB1 1171-1184 K1178me3] (H-STHGIAI[Lys(Me3)]STNMAS-OH; N-terminus and C-terminus assumed) | > 50000

Same assay, conditions: Figure 4B, 50 mM HEPES pH 7.4, 0.1 M NaCl, 0.5 mM TCEP, 25 °C, single-site model

Row | Kd [nM] | SMILES
8 | > 80000 | CC[C@H](C)[C@H](NC(=O)CNC(=O)[C@H](Cc1c[nH]cn1)NC(=O)[C@@H](NC(=O)[C@@H](N)CO)[C@@H](C)O)C(=O)N[C@@H](C)C(=O)N[C@H](C(=O)N[C@@H](CCCC[N+](C)(C)C)C(=O)N[C@@H](CO)C(=O)N[C@H](C(=O)N[C@@H](CC(N)=O)C(=O)N[C@@H](CCSC)C(=O)N[C@@H](C)C(=O)N[C@@H](CO)C(=O)O)[C@@H](C)O)[C@@H](C)CC [SETDB1 1171-1184 K1178me3] (H-STHGIAI[Lys(Me3)]STNMAS-OH; N-terminus and C-terminus assumed)
